Laboratory results from ChEMBL document CHEMBL3817766, “Application of the Huisgen cycloaddition and 'click' reaction toward various 1,2,3-triazoles as HIV non-nucleoside reverse transcriptase inhibitors” (Bioorg Med Chem Lett, 2016).
pIC50: −log10 of the molar value.

Columns and labels:
[1] = Cytotoxicity against mouse EL4.3 cells assessed as reduction in cell viability by MTT assay; format: cell-based
[2] = Inhibition of HIV reverse transcriptase transfected in HEK293T cells assessed as reduction in viral replication measured at 48 hrs postinfection by luciferase reporter based single-cycle non replicative phenotypic assay; format: cell-based; details: Human immunodeficiency virus 1, HEK-293T

Structure (SMILES)	pIC50 ([2]; read-out: IC50)	CC50 [1]	pIC50 [2]
CCc1nn(CC)nc1C(OC)c1cc(Cl)cc(Cl)c1 (stereo not drawn)	< 4.31	89 µM	–
CCc1nn(CCO)nc1Cc1cc(C)cc(C)c1	< 4.00	> 100 µM	–
CCc1c(CCO)nnn1Cc1ccccc1	< 4.00	> 100 µM	–
CCc1nnn(Cc2cccc(C#N)c2)c1CCO	< 4.00	> 100 µM	–
CCc1c(CCO)nnn1Cc1cccc(C#N)c1	< 4.00	> 100 µM	–
CCc1nnn(Cc2ccccc2)c1CCO	< 4.00	> 100 µM	–
CCc1nnn(Cc2cc(Cl)cc(Cl)c2)c1CCO	4.14	> 100 µM	–
Cc1ccnc2c1NC(=O)c1cccnc1N2C1CC1 [NEVIRAPINE]	–	–	7.04

More lines, main results first:

pIC50 ([2]; read-out: IC50)	Structure (SMILES)	CC50 [1]	pIC50 [2]
< 4.08	N#Cc1cccc(Cn2cc(CCO)nn2)c1	> 100 µM	–
4.85	CCc1nn(CCO)nc1C(OC)c1cc(Cl)cc(Cl)c1 (stereo not drawn)	95.1 µM	–
< 4.00	CCc1nn(CCO)nc1Cc1cccc(C#N)c1	> 100 µM	–
4.34	CCc1c(CCO)nnn1Cc1cc(Cl)cc(Cl)c1	> 100 µM	–
< 4.61	OCc1cn(Cc2cc(C(F)(F)F)cc(C(F)(F)F)c2)nn1	> 53.4 µM	–
< 4.00	CCc1nnn(Cc2cc(C)cc(C)c2)c1CCO	> 100 µM	–
4.56	Cc1cc(C)cc(Cn2cc(CO)nn2)c1	> 100 µM	–
4.62	CCc1nn(CCO)nc1Cc1cc(Cl)cc(Cl)c1	84.7 µM	–
< 4.08	OCc1cn(Cc2ccccc2)nn1	> 100 µM	–
